≈ marks a conversion by molar mass, not a printed value. Where two headings read alike, the source gives them in different places.
Key:
[1] = test system: P. aeruginosa ATCC BAA-2111; experiment: MIC/MBC against MDRB, paper disk diffusion; assay type: cell-based; details: Pseudomonas aeruginosa, ATCCBAA2111, P. aeruginosa ATCC BAA-2111; for MBC: read-out: MBC; for MIC: read-out: MIC
From the text: (§1) The inhibition zone (IZ, mm±standard deviation) of pyrazole Schiff bases ( 6b, 7b, 7c, 8a, 8d and 9b) was
(§2) measurement according to the agar plate diffusion method against a panel of multidrug-resistant bacteria
(MDRB). […]

E. coli ATCC BAA-196 [2] = experiment: MIC/MBC against MDRB, paper disk diffusion; assay type: cell-based; details: Escherichia coli, ATCCBAA196, E. coli ATCC BAA-196; for MBC: read-out: MBC; for MIC: read-out: MIC
From the text: as §1, §2
(MDRB). […]

[3] = test system: S. aureus ATCC 43300 (MRSA); experiment: MIC/MBC against MDRB, paper disk diffusion; assay type: cell-based; details: Staphylococcus aureus, S. aureus ATCC 43300; for MBC: read-out: MBC; for MIC: read-out: MIC
From the text: as §1, §2
(MDRB). […]

S. aureus ATCC 33591 = experiment: MIC/MBC against MDRB, paper disk diffusion; assay type: cell-based; details: Staphylococcus aureus, ATCC33591, S. aureus ATCC 33591; for MBC: read-out: MBC; for MIC: read-out: MIC
From the text: as §1, §2
(MDRB). […]

Vero cells (ATCC CCL-81) = experiment: Cytotoxicity on normal cells, MTT assay; assay type: cell-based, African green monkey; details: MTT, healthy non-cancer cells, read-out: IC50 Vero
Protocol: 3-[4, 5-Dimethyl-2-thiazolyl)-2, 5-diphenyl-2 H-tetrazolium bromide (MTT) protocol is based on the cleavage of the tetrazolium salt by mitochondrial dehydrogenases in viable cells. Cells were dispensed in a 96 well sterile microplate (5 x 10^4 cells/well), and incubated at 37 °C with series of different concentrations, in DMSO, of each tested compound or Doxorubicin ® (positive control) for 48 h in a serum free medium prior to the MTT assay. After incubation, media were carefully removed, 40 µL of MTT (2.5 mg/mL) were added to each well and then incubated for an additional 4 h. The purple formazan dye crystals were solubilized by the addition of 200 µL of DMSO. The absorbance was measured at 590 nm using a SpectraMax® Paradigm® Multi-Mode microplate reader. The relative cell viability was expressed as the mean percentage of viable cells compared to the untreated control cells.
All experiments were conducted in triplicate and repeated in three different days. All the values were represented as mean ± SD. IC 50s were determined by probit analysis using SPSS software program (SPSS

Fusarium oxysporum = experiment: MIC/MFC, paper disk diffusion; assay type: cell-based; details: F. oxysporum; for MFC / MIC: Fusarium oxysporum; for MFC: read-out: MFC; for MIC: read-out: MIC
How it was run: (§3)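 MIC and MBC were obtained by paper disk diffusion, bacteria grown on nutrient agar and fungi/yeast on Sabouraud agar. MIC is the lowest concentration inhibiting growth.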

Candida albicans = experiment: MIC/MFC, paper disk diffusion; assay type: cell-based; details: for MIC / MFC: Candida albicans; for MFC: read-out: MFC
How it was run: as §3

E. coli ATCC BAA-196 [4] = experiment: Inhibition zone against MDRB, agar plate diffusion; assay type: cell-based

SMILES	MBC [1] [µg/mL]	MIC [1] [µg/mL]	MBC (E. coli ATCC BAA-196 [2]) [µg/mL]	MIC (E. coli ATCC BAA-196 [2]) [µg/mL]	MBC [3] [µg/mL]	MIC [3] [µg/mL]	MBC (S. aureus ATCC 33591) [µg/mL]	MIC (S. aureus ATCC 33591) [µg/mL]	IC50 (Vero cells (ATCC CCL-81); Chlorocebus sabaeus, Vero) [µM]	IC50 (Vero cells (ATCC CCL-81)) [µM]	Fold activity in comparison with Amphotericin B (MIC) (Fusarium oxysporum) [fold]	MFC (Fusarium oxysporum) [µg/mL]	MIC (Fusarium oxysporum) [µg/mL]	Fold activity in comparison with Amphotericin B (MIC) (Candida albicans; C. albicans) [fold]	MIC (Candida albicans) [µg/mL]	MFC (Candida albicans; C. albicans) [µg/mL]	Mean Diameter of Inhibition Zone against MDRB (E. coli ATCC BAA-196 [4]) [mm]	MIC (Candida albicans; C. albicans, read-out: MIC) [µg/mL]
COc1ccc(Nc2n[nH]c(N=Cc3ccc(N4CCCCC4)cc3)c2C(N)=O)cc1 [8a, 3-(p-Methoxyphenylamino)-5-(4-(piperidin-1-yl)benzylideneamino)-1H-pyrazole-4-carboxamide]	7.8 (≈ 18.6 µM)	3.9 (≈ 9.32 µM)	3.9 (≈ 9.32 µM)	1.95 (≈ 4.66 µM)	3.9 (≈ 9.32 µM)	1.95 (≈ 4.66 µM)	7.8 (≈ 18.6 µM)	3.9 (≈ 9.32 µM)	> 120	120.5 ± 0.34	2	27.8 (≈ 66.4 µM)	15.6 (≈ 37.3 µM)	2	7.81 (≈ 18.7 µM)	15.6 (≈ 37.3 µM)	25 ± 0.46	–
COc1ccc(Nc2n[nH]c(N=Cc3cc(OC)c(OC)c(OC)c3)c2C(=O)Nc2ccccc2)cc1 [9b, 3-(p-Methoxyphenylamino)-N-phenyl-5-(3,4,5-trimethoxybenzylideneamino)-1H-pyrazole-4-carboxamide]	9.88 (≈ 19.7 µM)	5.2 (≈ 10.4 µM)	11.9 (≈ 23.7 µM)	6.25 (≈ 12.5 µM)	4.5 (≈ 8.97 µM)	2.5 (≈ 4.98 µM)	3.31 (≈ 6.6 µM)	1.95 (≈ 3.89 µM)	> 120	195.9 ± 0.57	2	26.6 (≈ 52.9 µM)	15.6 (≈ 31.1 µM)	2	–	12.5 (≈ 24.9 µM)	22 ± 0.2	7.81 (≈ 15.6 µM)

— paper PMC7321065, “Discovery of New Schiff Bases Tethered Pyrazole Moiety: Design, Synthesis, Biological Evaluation, and Molecular Docking Study as Dual Targeting DHFR/DNA Gyrase Inhibitors with Immunomodulatory Activity” (Molecules, 2020)
